Test system: NCI-H1876 complex spheroid growth, % test/control
Assay: Anticancer human tumor NCI-H1876 cell line growth inhibition [Asc];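 note: compound exposure lasted 7 days starting three days after seeding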;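 for viability, T/C: 100% = DMSO vehicle control wells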
Conditions: for IC50: curve of first compound; for viability, T/C: stronger effect = lower value
In short: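 Concentration series start at each agent's clinical Cmax, or at 10 microM when none is established, and drop in half-log steps; agents are applied alone or together to complex spheroids built with HUVEC and hMSC.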

## C#Cc1c(F)ccc2cc(O)cc(-c3ncc4c(N5CC6CCC(C5)N6)nc(OCC56CCCN5CC(F)C6)nc4c3F)c12 (configuration not stated) + CCN1C(C(=O)NC23CCC(C(=O)O)(CC2)CC3)C(c2cccc(Cl)c2F)C2(C(=O)Nc3cc(Cl)ccc32)C12CCCCC2
Second compound 0.00949 µM
  IC50: > 10 µM
Second compound 0.03 µM
  IC50: > 10 µM
Second compound 0.0949 µM
  IC50: > 10 µM
Second compound 0.3 µM
  IC50: > 10 µM
Second compound 0.949 µM
  IC50: > 10 µM
Second compound 3 µM
  IC50: > 10 µM
Second compound 0.00949 µM, first compound 0.0316 µM
  viability, T/C: 89.2%
Second compound 0.00949 µM, first compound 0.1 µM
  viability, T/C: 97.2%
Second compound 0.00949 µM, first compound 0.316 µM
  viability, T/C: 98.5%
Second compound 0.00949 µM, first compound 1 µM
  viability, T/C: 95.6%
Second compound 0.00949 µM, first compound 3.16 µM
  viability, T/C: 98.1%
Second compound 0.00949 µM, first compound 10 µM
  viability, T/C: 87.1%
Second compound 0.03 µM, first compound 0.0316 µM
  viability, T/C: 94.8%
Second compound 0.03 µM, first compound 0.1 µM
  viability, T/C: 106%
Second compound 0.03 µM, first compound 0.316 µM
  viability, T/C: 98.5%
Second compound 0.03 µM, first compound 1 µM
  viability, T/C: 103%
Second compound 0.03 µM, first compound 3.16 µM
  viability, T/C: 95.3%
Second compound 0.03 µM, first compound 10 µM
  viability, T/C: 89.8%
Second compound 0.0949 µM, first compound 0.0316 µM
  viability, T/C: 101%
Second compound 0.0949 µM, first compound 0.1 µM
  viability, T/C: 112%
Second compound 0.0949 µM, first compound 0.316 µM
  viability, T/C: 102%
Second compound 0.0949 µM, first compound 1 µM
  viability, T/C: 97.7%
Second compound 0.0949 µM, first compound 3.16 µM
  viability, T/C: 96.3%
Second compound 0.0949 µM, first compound 10 µM
  viability, T/C: 88.4%
Second compound 0.3 µM, first compound 0.0316 µM
  viability, T/C: 105%
Second compound 0.3 µM, first compound 0.1 µM
  viability, T/C: 106%
Second compound 0.3 µM, first compound 0.316 µM
  viability, T/C: 114%
Second compound 0.3 µM, first compound 1 µM
  viability, T/C: 99.8%
Second compound 0.3 µM, first compound 3.16 µM
  viability, T/C: 96.5%
Second compound 0.3 µM, first compound 10 µM
  viability, T/C: 99.5%
Second compound 0.949 µM, first compound 0.0316 µM
  viability, T/C: 118%
Second compound 0.949 µM, first compound 0.1 µM
  viability, T/C: 120%
Second compound 0.949 µM, first compound 0.316 µM
  viability, T/C: 104%
Second compound 0.949 µM, first compound 1 µM
  viability, T/C: 112%
Second compound 0.949 µM, first compound 3.16 µM
  viability, T/C: 116%
Second compound 0.949 µM, first compound 10 µM
  viability, T/C: 95%
Second compound 3 µM, first compound 0.0316 µM
  viability, T/C: 97.4%
Second compound 3 µM, first compound 0.1 µM
  viability, T/C: 88%
Second compound 3 µM, first compound 0.316 µM
  viability, T/C: 85.2%
Second compound 3 µM, first compound 1 µM
  viability, T/C: 96.9%
Second compound 3 µM, first compound 3.16 µM
  viability, T/C: 102%
Second compound 3 µM, first compound 10 µM
  viability, T/C: 79.2%

— PubChem BioAssay AID1963441 (Molecular Pharmacology Branch, DTP, NCI, 2024)
